Experiments:
Experiment in all cases: relative viability (nuclei count vs DMSO), 5 days (fraction); higher = more cells survive
Doxorubicin + Trametinib = compound: COc1cccc2c1C(=O)c1c(O)c3c(c(O)c1C2=O)C[C@@](O)(C(=O)CO)C[C@@H]3O[C@H]1C[C@H](N)[C@H](O)[C@H](C)O1 [Doxorubicin] + CC(=O)Nc1cccc(-n2c(=O)n(C3CC3)c(=O)c3c(Nc4ccc(I)cc4F)n(C)c(=O)c(C)c32)c1 [Trametinib] (partner 0.02 µM)
Outline: (§1)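 Relative viability equals treated-well nuclei counts divided by vehicle-well nuclei counts. Counts came from 4× images of lung cancer cell lines grown in 1536-well plates for 5 days after pin-tool dosing on the day after seeding. Dosing used one drug alone or a fixed anchor-drug dose plus five library-drug doses (not always all listed) in √10 steps, and values are medians of duplicate plates.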

Doxorubicin + Foretinib = compound: COc1cccc2c1C(=O)c1c(O)c3c(c(O)c1C2=O)C[C@@](O)(C(=O)CO)C[C@@H]3O[C@H]1C[C@H](N)[C@H](O)[C@H](C)O1 [Doxorubicin] + COc1cc2c(Oc3ccc(NC(=O)C4(C(=O)Nc5ccc(F)cc5)CC4)cc3F)ccnc2cc1OCCCN1CCOCC1 [Foretinib] (partner 0.25 µM)
Outline: as §1

BAY61-3606 + Dasatinib = compound: COC1=C(C=C(C=C1)C2=CC3=NC=CN3C(=N2)NC4=C(C=CC=N4)C(=O)N)OC [BAY61-3606] + Cc1nc(Nc2ncc(C(=O)Nc3c(C)cccc3Cl)s2)cc(N2CCN(CCO)CC2)n1 [Dasatinib] (partner 0.075 µM)
Outline: as §1

Doxorubicin + Pictilisib = compound: COc1cccc2c1C(=O)c1c(O)c3c(c(O)c1C2=O)C[C@@](O)(C(=O)CO)C[C@@H]3O[C@H]1C[C@H](N)[C@H](O)[C@H](C)O1 [Doxorubicin] + CS(=O)(=O)N1CCN(Cc2cc3nc(-c4cccc5[nH]ncc45)nc(N4CCOCC4)c3s2)CC1 [Pictilisib] (partner 1 µM)
Outline: as §1

Cell Line	relative viability (Doxorubicin + Trametinib; first compound 0.001 µM)	relative viability (Doxorubicin + Trametinib; first compound 0.003162 µM)	relative viability (Doxorubicin + Trametinib; first compound 0.01 µM)	relative viability (Doxorubicin + Trametinib; first compound 0.03162 µM)	relative viability (Doxorubicin + Trametinib; first compound 0.1 µM)	relative viability (Doxorubicin + Foretinib; first compound 0.001 µM)	relative viability (Doxorubicin + Foretinib; first compound 0.003162 µM)	relative viability (Doxorubicin + Foretinib; first compound 0.01 µM)	relative viability (Doxorubicin + Foretinib; first compound 0.03162 µM)	relative viability (Doxorubicin + Foretinib; first compound 0.1 µM)	relative viability (BAY61-3606 + Dasatinib; first compound 0.02 µM)	relative viability (BAY61-3606 + Dasatinib; first compound 0.06325 µM)	relative viability (BAY61-3606 + Dasatinib; first compound 0.2 µM)	relative viability (BAY61-3606 + Dasatinib; first compound 0.6325 µM)	relative viability (BAY61-3606 + Dasatinib; first compound 2 µM)	relative viability (Doxorubicin + Pictilisib; first compound 0.001 µM)	relative viability (Doxorubicin + Pictilisib; first compound 0.003162 µM)	relative viability (Doxorubicin + Pictilisib; first compound 0.01 µM)	relative viability (Doxorubicin + Pictilisib; first compound 0.03162 µM)	relative viability (Doxorubicin + Pictilisib; first compound 0.1 µM)
RERF-LC-KJ	0.659	1.02	0.696	0.514	0.513	0.9	0.944	0.81	0.761	0.867	0.843	0.856	0.702	0.886	0.517	0.531	0.54	0.595	0.501	0.48
NCI-H647	0.449	0.623	0.543	0.295	0.202	1.2	1.38	1.14	0.882	0.545	0.193	0.158	0.189	0.164	0.0812	–	0.38	0.46	0.279	0.1
LU99A	0.521	0.614	0.628	0.592	0.635	0.832	0.915	0.769	0.721	0.802	0.561	0.509	0.505	0.51	0.303	0.349	0.323	0.318	0.272	0.314
NCI-H460	0.138	0.0856	0.0422	0.0236	0.0041	0.965	1.09	0.843	0.105	0.0481	0.574	0.493	0.533	0.421	0.284	0.246	0.393	0.392	0.309	0.249
NCI-H650	0.98	0.876	1.04	0.881	0.917	0.93	0.965	1.08	0.834	0.954	0.52	0.378	0.363	0.428	0.361	0.989	0.886	0.867	0.734	0.711
PC-14	0.751	0.74	0.536	0.162	0.0928	1	0.967	0.998	0.912	0.931	0.269	0.249	0.264	0.287	0.176	0.619	0.926	0.809	0.568	0.663
PC-3 [JPC-3]	0.614	0.628	0.687	0.632	0.741	1.05	1.06	1.05	0.97	1.06	–	1.07	1	0.928	0.862	0.774	0.842	0.758	0.713	0.702
NCI-H1944	0.398	0.422	0.385	0.399	0.449	0.848	0.945	0.908	0.812	0.869	0.216	0.205	0.232	0.21	0.193	0.327	0.346	0.381	0.345	0.347

Source: the supplement of paper PMC10307832
